Each structure is given as a SMILES string.

This series concerns the target T1, Solute carrier organic anion transporter family member 1A1 (Rattus norvegicus, UniProt P46720).
T1 sequence (P46720 whole entry): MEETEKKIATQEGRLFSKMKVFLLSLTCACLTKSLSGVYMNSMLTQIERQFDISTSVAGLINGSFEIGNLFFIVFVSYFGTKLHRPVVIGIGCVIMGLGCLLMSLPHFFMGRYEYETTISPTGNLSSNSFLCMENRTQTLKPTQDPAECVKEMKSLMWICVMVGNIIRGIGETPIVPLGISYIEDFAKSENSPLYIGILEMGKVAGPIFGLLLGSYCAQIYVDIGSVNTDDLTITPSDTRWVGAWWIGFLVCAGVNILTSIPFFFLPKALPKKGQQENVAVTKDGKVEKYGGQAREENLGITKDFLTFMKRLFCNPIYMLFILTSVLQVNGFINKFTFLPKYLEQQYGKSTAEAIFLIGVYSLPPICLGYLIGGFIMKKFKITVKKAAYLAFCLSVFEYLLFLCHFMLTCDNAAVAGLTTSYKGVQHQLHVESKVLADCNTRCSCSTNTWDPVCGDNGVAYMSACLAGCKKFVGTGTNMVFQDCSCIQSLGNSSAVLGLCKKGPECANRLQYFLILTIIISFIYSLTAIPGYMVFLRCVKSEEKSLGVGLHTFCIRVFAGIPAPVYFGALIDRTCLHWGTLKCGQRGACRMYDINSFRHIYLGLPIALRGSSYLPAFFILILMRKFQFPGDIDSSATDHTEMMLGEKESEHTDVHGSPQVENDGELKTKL
Put plainly: TP_TRANSPORTER: uptake in Oatp1-expressing Saccharomyces cerevisiae secretory vesicle. Format: functional, subcellular.

For the compound `C[C@]12CC[C@@H]3c4ccc(OS(=O)(=O)O)cc4CC[C@H]3[C@@H]1CCC2=O` [ESTRONE SULFURIC ACID], the Activity result was “is not a substrate [-]”.
Next, `CCCCC/C=C\C\C=C/C=C/C=C/[C@@H](SC[C@@H](NC(=O)CC[C@H](N)C(=O)O)C(=O)NCC(=O)O)[C@@H](O)CCCC(=O)O` [LEUKOTRIEN C4]: “is not a substrate [-]”.

Source of the values: ChEMBL document CHEMBL2074352, “N-glycosylation controls functional activity of Oatp1, an organic anion transporter” (Am J Physiol Gastrointest Liver Physiol, 2003).
